Experimental data as given in patent EP0082731A1, “The use of peptides as medicaments” (NOVO INDUSTRI A/S, priority 1981, dated 1983).

Tests used:
Normoglycaemic Rats = assay: Experiment D: effect on plasma glucose and plasma IRI levels in normoglycaemic rats; format: in vivo, Wistar rats; conditions: for Blood glucose / Plasma IRI: i.v. injection at 0 min, equimolar doses (glucagon 1 mg/kg, glucagon(1-21) 0.77 mg/kg), mean, N = 10
Description: Glucagon (-1 mg/kg) and an equimolar dosis of glucagon(1-21), i.e. 0.77 mg/kg, were injected intravenously at the beginning time (time: 0 minutes) to normally fed male Wistar rats weighing 150 g (+/- 5 g). Blood samples were taken from the orbital plexus at the times -5, 2, 5, 10, 15, 30, and 60 minutes. Blood glucose was assayed according to the hexokinase method and plasma insulin was assayed by RIA. […] Contrary to glucagon, glucagon(1-21) had no effect on these parameters. Mean blood glucose values (N = 10) are stated in Table VI below, and mean plasma IRI values (N = 10) are stated in Table VII below.

[1] = system: isolated perfused rat pancreas; conditions: buffer glucose concentration 1.0 mg/ml corresponding to normoglycaemia or below; statement of Danish patent application No. 2885/81; cited from earlier work
[2] = normally fed rats, i.v., glucagon 1 mg/kg, glucagon(1-21) 0.77 mg/kg

glucagon-(1-21)-heneicosapeptide (HSQGTFTSDYSKYLDSRRAQD; Glucagon; UniProt P01275 53-73, looked up, fragment) [glucagon(1-21)]
hyperglycaemia (Normoglycaemic Rats; in vivo in normally fed rats): does not cause hyperglycaemia | insulin release (Normoglycaemic Rats; in vivo in normally fed rats): does not cause hyperglycaemia or release insulin | IRI release and plasma glucose levels (Normoglycaemic Rats; infused to rats and pigs with plasma glucose levels below 1.2 mg/ml): neither release IRI nor influence the plasma glucose levels | Blood glucose (Normoglycaemic Rats; normally fed rats, time 2 min): 1.1 mg/mL | Plasma IRI (Normoglycaemic Rats; normally fed rats, time 2 min): 30 µU/ml | Blood glucose (Normoglycaemic Rats; normally fed rats, time 5 min): 1.1 mg/mL | Plasma IRI (Normoglycaemic Rats; normally fed rats, time 5 min): 33 µU/ml | Blood glucose (Normoglycaemic Rats; normally fed rats, time 10 min): 1.2 mg/mL | Plasma IRI (Normoglycaemic Rats; normally fed rats, time 10 min): 35 µU/ml | Blood glucose (Normoglycaemic Rats; normally fed rats, time 15 min): 1.3 mg/mL | Plasma IRI (Normoglycaemic Rats; normally fed rats, time 15 min): 43 µU/ml | Blood glucose (Normoglycaemic Rats; normally fed rats, time 30 min): 1.3 mg/mL | Plasma IRI (Normoglycaemic Rats; normally fed rats, time 30 min): 38 µU/ml | Blood glucose (Normoglycaemic Rats; normally fed rats, time 60 min): 1.3 mg/mL | Plasma IRI (Normoglycaemic Rats; normally fed rats, time 60 min): 30 µU/ml | Blood glucose (Normoglycaemic Rats; normally fed rats, time -5 min): 1.0 mg/mL | Plasma IRI (Normoglycaemic Rats; normally fed rats, time -5 min): 32 µU/ml | effect on blood glucose (Normoglycaemic Rats; [2]): no effect | effect on plasma IRI (Normoglycaemic Rats; [2]): no effect | insulin release [1]: does not release insulin
